Data reported in patent US9695155B2, “Herbicidal substituted pyrimidinyloxy benzene compounds” (E. I. DU PONT DE NEMOURS AND COMPANY, priority 2013, dated 2017).

Tests used:
[1] = test system: large (Lg) crabgrass; experiment: Test A preemergence; type: in vivo, Digitaria sanguinalis; conditions: for Crabgrass, Large plant response rating (0 to 100 scale): 125 g ai/ha; for Crabgrass, Large plant response rating: 500 g ai/ha, 0 to 100 scale where 0 is no effect and 100 is complete control
Method in brief: (§1)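 Visual 0–100 rating (100 = complete control) taken about 10 d post-treatment relative to untreated checks. Preemergence: directed soil spray on sown loam/sand pots. Postemergence: seedlings 2–10 cm, 1–2 leaf. Non-phytotoxic solvent formulation with surfactant.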

[2] = test system: Italian ryegrass; experiment: Test C preemergence; type: in vivo, Lolium multiflorum; conditions: for Ryegrass, Italian plant response rating: preemergence; for Plant response rating, Ryegrass, Italian: Preemergence, 62 g ai/ha, scale 0 to 100, 0 no effect, 100 complete control
Method in brief: (§2)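 Greenhouse herbicide screen. Pre: seeded loam/sand, sprayed at planting. Post: 1–4 leaf plants (2–18 cm) in peat-based mix. Formulation: solvent mixture + surfactant, non-phytotoxic. Readout: visual % control vs untreated, 13–15 d; dash = not tested.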

[3] = test system: Heteranthera limosa; experiment: Test B flooded paddy test; type: in vivo; conditions: Flood, 250 g ai/ha; 0 to 100 scale where 0 is no effect and 100 is complete control
Method in brief: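 Visual ratings on a 0 to 100 scale, where 100 means complete control, compared treated plants with controls after 13 to 15 days in a greenhouse. Treatment went into paddy water 3 cm deep over the soil, applied to plants at the 2-leaf stage.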

[4] = test system: giant foxtail; experiment: Test A preemergence; type: in vivo, Setaria faberii; conditions: for Foxtail, Giant plant response rating (0 to 100 scale): 125 g ai/ha; for Foxtail, Giant plant response rating: 500 g ai/ha, 0 to 100 scale where 0 is no effect and 100 is complete control
Method in brief: as §1

[5] = test system: velvetleaf; experiment: Test A preemergence; type: in vivo, Abutilon theophrasti; conditions: for Velvetleaf plant response rating (0 to 100 scale): 125 g ai/ha; for Velvetleaf plant response rating: 500 g ai/ha, 0 to 100 scale where 0 is no effect and 100 is complete control
Method in brief: as §1

[6] = test system: chickweed; experiment: Test C postemergence; type: in vivo, Stellaria media; conditions: for Chickweed plant response rating: 31 g ai/ha; for Chickweed plant response rating / Plant response rating, Chickweed: scale 0 to 100 (0 no effect, 100 complete control)
Method in brief: as §2

[7] = test system: galium; experiment: Test C preemergence; type: in vivo, Galium aparine; conditions: for Galium plant response rating: preemergence; for Plant response rating, Galium: Preemergence, 62 g ai/ha, scale 0 to 100, 0 no effect, 100 complete control
Method in brief: as §2

[8] = test system: large (Lg) crabgrass; experiment: Test C postemergence; type: in vivo, Digitaria sanguinalis; conditions: for Crabgrass, Large plant response rating: 31 g ai/ha; for Crabgrass, Large plant response rating / Plant response rating, Crabgrass, Large: scale 0 to 100 (0 no effect, 100 complete control)
Method in brief: as §2

[9] = test system: velvetleaf; experiment: Test C preemergence; type: in vivo, Abutilon theophrasti; conditions: for Velvetleaf plant response rating: preemergence; for Plant response rating, Velvetleaf: Preemergence, 62 g ai/ha, scale 0 to 100, 0 no effect, 100 complete control
Method in brief: as §2

[10] = test system: wheat, winter; experiment: Test C postemergence; type: in vivo, Triticum aestivum; conditions: for Wheat plant response rating: 31 g ai/ha; for Wheat plant response rating / Plant response rating, Wheat: scale 0 to 100 (0 no effect, 100 complete control)
Method in brief: as §2

[11] = test system: morningglory; experiment: Test C preemergence; type: in vivo, Ipomoea coccinea; conditions: for Morningglory plant response rating: preemergence; for Plant response rating, Morningglory: Preemergence, 62 g ai/ha, scale 0 to 100, 0 no effect, 100 complete control
Method in brief: as §2

[12] = test system: oilseed rape; experiment: Test C preemergence; type: in vivo, Brassica napus; conditions: for Oilseed Rape plant response rating: preemergence; for Plant response rating, Oilseed Rape: Preemergence, 62 g ai/ha, scale 0 to 100, 0 no effect, 100 complete control
Method in brief: as §2

[13] = test system: corn; experiment: Test C postemergence; type: in vivo, Zea mays; conditions: for Corn plant response rating: 31 g ai/ha; for Corn plant response rating / Plant response rating, Corn: scale 0 to 100 (0 no effect, 100 complete control)
Method in brief: as §2

[14] = test system: johnsongrass; experiment: Test C preemergence; type: in vivo, Sorghum halepense; conditions: for Johnsongrass plant response rating: preemergence; for Plant response rating, Johnsongrass: Preemergence, 62 g ai/ha, scale 0 to 100, 0 no effect, 100 complete control
Method in brief: as §2

[15] = test system: pigweed; experiment: Test A postemergence; type: in vivo, Amaranthus retroflexus; conditions: 0 to 100 scale where 0 is no effect and 100 is complete control; for Pigweed plant response rating: 125 g ai/ha; for Plant response rating, Pigweed: 500 g ai/ha
Method in brief: as §1

[16] = 125 g ai/ha, scale 0 (no effect) to 100 (complete control)
[17] = 250 g ai/ha, scale 0 (no effect) to 100 (complete control)
[18] = postemergence, visual rating, 13 to 15 days
[19] = 125 g ai/ha, postemergence, visual rating
[20] = Postemergence, 62 g ai/ha, 13 to 15 days
[21] = 16 g ai/ha, scale 0 to 100 (0 no effect, 100 complete control)
[22] = 16 g ai/ha, postemergence, 0 is no effect, 100 is complete control

N#Cc1cccc(Oc2ncc(Cl)cn2)c1-n1cc(I)cn1 [Compound 204]
Crabgrass, Large plant response rating (0 to 100 scale) [1]: 100 | Crabgrass, Large plant response rating [1]: 100 | Ryegrass, Italian plant response rating [2, 16]: 75 | Ryegrass, Italian plant response rating [2, 17]: 95 | Plant response rating, Ryegrass, Italian [2]: 35 | Plant response rating, Ducksalad [3]: 70 | Foxtail, Giant plant response rating (0 to 100 scale) [4]: 100 | Foxtail, Giant plant response rating [4]: 100 | Velvetleaf plant response rating (0 to 100 scale) [5]: 80 | Velvetleaf plant response rating [5]: 100 | Chickweed plant response rating [6, 18]: 75 | Plant response rating, Chickweed [6, 19]: 98 | Plant response rating (0 to 100), Chickweed ([6]; 250 g ai/ha, postemergence): 100 | Plant response rating, Chickweed [6, 20]: 95 | Galium plant response rating [7, 16]: 100 | Galium plant response rating [7, 17]: 100 | Plant response rating, Galium [7]: 100 | Crabgrass, Large plant response rating [8, 18]: 5 | Plant response rating, Crabgrass, Large [8, 19]: 15 | Plant response rating (0 to 100), Crabgrass, Large ([8]; 250 g ai/ha, postemergence): 65 | Plant response rating, Crabgrass, Large [8, 20]: 10 | Velvetleaf plant response rating [9, 16]: 98 | Velvetleaf plant response rating [9, 17]: 98 | Plant response rating, Velvetleaf [9]: 85 | Wheat plant response rating [10, 18]: 5 | Plant response rating, Wheat [10, 19]: 10 | Plant response rating (0 to 100), Wheat ([10]; 250 g ai/ha, postemergence): 10 | Plant response rating, Wheat [10, 20]: 5 | Morningglory plant response rating [11, 16]: 98 | Morningglory plant response rating [11, 17]: 98 | Plant response rating, Morningglory [11]: 98 | Oilseed Rape plant response rating [12, 16]: 98 | Oilseed Rape plant response rating [12, 17]: 100 | Plant response rating, Oilseed Rape [12]: 95 | Corn plant response rating [13, 18]: 10 | Plant response rating, Corn [13, 19]: 20 | Plant response rating (0 to 100), Corn ([13]; 250 g ai/ha, postemergence): 20 | Plant response rating, Corn [13, 20]: 20 | Johnsongrass plant response rating [14, 16]: 95 | Johnsongrass plant response rating [14, 17]: 98 | Plant response rating, Johnsongrass [14]: 80 | Pigweed plant response rating [15]: 100 | Plant response rating, Pigweed [15]: 100

N#Cc1cnn(-c2c(Oc3ncc(Cl)cn3)cccc2C(F)F)c1 [Compound 236]
Crabgrass, Large plant response rating (0 to 100 scale) [1]: 100 | Crabgrass, Large plant response rating [1]: 100 | Ryegrass, Italian plant response rating [2, 21]: 0 | Ryegrass, Italian plant response rating [2, 16]: 85 | Plant response rating, Ryegrass, Italian [2]: 45 | Plant response rating, Ducksalad [3]: 100 | Foxtail, Giant plant response rating (0 to 100 scale) [4]: 100 | Foxtail, Giant plant response rating [4]: 100 | Velvetleaf plant response rating (0 to 100 scale) [5]: 100 | Velvetleaf plant response rating [5]: 100 | Plant response rating (0 to 100), Chickweed [6, 22]: 40 | Chickweed plant response rating [6, 18]: 50 | Plant response rating, Chickweed [6, 19]: 50 | Plant response rating, Chickweed [6, 20]: 65 | Galium plant response rating [7, 21]: 90 | Galium plant response rating [7, 16]: 100 | Plant response rating, Galium [7]: 100 | Plant response rating (0 to 100), Crabgrass, Large [8, 22]: 5 | Crabgrass, Large plant response rating [8, 18]: 5 | Plant response rating, Crabgrass, Large [8, 19]: 5 | Plant response rating, Crabgrass, Large [8, 20]: 5 | Velvetleaf plant response rating [9, 21]: 65 | Velvetleaf plant response rating [9, 16]: 100 | Plant response rating, Velvetleaf [9]: 100 | Plant response rating (0 to 100), Wheat [10, 22]: 0 | Wheat plant response rating [10, 18]: 0 | Plant response rating, Wheat [10, 19]: 0 | Plant response rating, Wheat [10, 20]: 0 | Morningglory plant response rating [11, 21]: 0 | Morningglory plant response rating [11, 16]: 98 | Plant response rating, Morningglory [11]: 55 | Oilseed Rape plant response rating [12, 21]: 80 | Oilseed Rape plant response rating [12, 16]: 100 | Plant response rating, Oilseed Rape [12]: 100 | Plant response rating (0 to 100), Corn [13, 22]: 5 | Corn plant response rating [13, 18]: 5 | Plant response rating, Corn [13, 19]: 10 | Plant response rating, Corn [13, 20]: 5 | Johnsongrass plant response rating [14, 21]: 5 | Johnsongrass plant response rating [14, 16]: 85 | Plant response rating, Johnsongrass [14]: 60 | Pigweed plant response rating [15]: 100 | Plant response rating, Pigweed [15]: 100
